Common to all, as to assay type: cell-based
The target of one test is BaF3_EGFRWT cells (Homo sapiens, UniProt P00533). Description: Cell growth inhibition assay (CellTiterGlo), BaF3_EGFRWT. A general note: Cellular ATP, detected with luciferase, serves as a proxy for viable cell number.
The target in the next test is BaF3_HER2WT cells (Homo sapiens, UniProt P04626). Description: Cell growth inhibition assay (CellTiterGlo), BaF3_HER2WT.
The target of the next test is BaF3_HER2YVMA cells (Homo sapiens, UniProt P04626, DUP772-775, cells depend on it). Nature of the test: Cell growth inhibition assay (CellTiterGlo), BaF3_HER2YVMA.
Setting [1] is: 3-day treatment, CellTiterGlo, read-out: Cell growth inhibition activity, EGFR WT.
Setting [2] is: 3-day treatment, CellTiterGlo, read-out: Cell growth inhibition activity, HER2 WT.
[3] abbreviates: cell growth inhibition, 80 ng/mL EGF, 3 days treatment, read-out: EGFR WT IC50.
Where [4] appears, read: cell growth inhibition, 3 days treatment, read-out: HER2 WT IC50.
Where [5] appears, read: cell growth inhibition, 3 days treatment, read-out: HER2 - YVMA IC50.

Where a name gives a salt, the structure may show the parent alone. Read-outs that look alike come from different tables or passages of the source.

This note sets out measurements from patent US20240132521A1, “COMPOUNDS AND METHODS FOR MODULATING HER2” (Iambic Therapeutics, Inc., priority 2022, published 2024).

Sequence of BaF3_HER2WT cells (P04626 whole entry, change not shown): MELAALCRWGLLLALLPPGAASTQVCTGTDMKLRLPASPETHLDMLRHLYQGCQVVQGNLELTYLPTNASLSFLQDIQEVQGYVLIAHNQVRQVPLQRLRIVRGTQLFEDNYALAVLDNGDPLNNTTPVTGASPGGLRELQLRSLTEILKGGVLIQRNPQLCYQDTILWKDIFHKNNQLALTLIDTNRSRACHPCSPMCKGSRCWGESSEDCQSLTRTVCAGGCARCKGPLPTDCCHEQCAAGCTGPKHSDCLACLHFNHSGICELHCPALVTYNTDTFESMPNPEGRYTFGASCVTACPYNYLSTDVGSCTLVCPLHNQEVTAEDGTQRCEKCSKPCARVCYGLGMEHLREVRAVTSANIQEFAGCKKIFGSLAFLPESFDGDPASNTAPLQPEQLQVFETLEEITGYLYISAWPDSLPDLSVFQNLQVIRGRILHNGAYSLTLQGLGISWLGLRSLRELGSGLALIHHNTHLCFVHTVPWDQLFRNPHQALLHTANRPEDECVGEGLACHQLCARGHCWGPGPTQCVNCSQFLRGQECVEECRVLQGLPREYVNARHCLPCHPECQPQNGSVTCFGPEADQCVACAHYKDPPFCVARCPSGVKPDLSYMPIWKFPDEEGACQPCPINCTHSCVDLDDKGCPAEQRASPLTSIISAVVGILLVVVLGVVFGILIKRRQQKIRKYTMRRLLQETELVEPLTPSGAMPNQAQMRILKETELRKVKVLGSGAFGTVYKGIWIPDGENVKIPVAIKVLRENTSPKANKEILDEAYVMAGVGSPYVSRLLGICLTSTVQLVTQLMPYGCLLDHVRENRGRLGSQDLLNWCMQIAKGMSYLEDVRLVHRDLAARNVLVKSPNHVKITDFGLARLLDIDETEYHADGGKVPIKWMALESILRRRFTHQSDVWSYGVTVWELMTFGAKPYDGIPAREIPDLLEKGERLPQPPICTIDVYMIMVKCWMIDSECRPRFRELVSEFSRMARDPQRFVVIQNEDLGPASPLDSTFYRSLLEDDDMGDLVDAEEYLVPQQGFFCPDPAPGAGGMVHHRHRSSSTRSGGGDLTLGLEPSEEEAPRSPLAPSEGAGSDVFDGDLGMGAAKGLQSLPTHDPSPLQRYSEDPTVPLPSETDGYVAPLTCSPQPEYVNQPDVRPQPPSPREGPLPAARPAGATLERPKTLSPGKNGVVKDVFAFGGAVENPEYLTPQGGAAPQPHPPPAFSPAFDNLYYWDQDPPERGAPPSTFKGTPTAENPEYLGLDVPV
Sequence of BaF3_HER2YVMA cells (P04626 with tags, fused parts or gaps DUP772-775): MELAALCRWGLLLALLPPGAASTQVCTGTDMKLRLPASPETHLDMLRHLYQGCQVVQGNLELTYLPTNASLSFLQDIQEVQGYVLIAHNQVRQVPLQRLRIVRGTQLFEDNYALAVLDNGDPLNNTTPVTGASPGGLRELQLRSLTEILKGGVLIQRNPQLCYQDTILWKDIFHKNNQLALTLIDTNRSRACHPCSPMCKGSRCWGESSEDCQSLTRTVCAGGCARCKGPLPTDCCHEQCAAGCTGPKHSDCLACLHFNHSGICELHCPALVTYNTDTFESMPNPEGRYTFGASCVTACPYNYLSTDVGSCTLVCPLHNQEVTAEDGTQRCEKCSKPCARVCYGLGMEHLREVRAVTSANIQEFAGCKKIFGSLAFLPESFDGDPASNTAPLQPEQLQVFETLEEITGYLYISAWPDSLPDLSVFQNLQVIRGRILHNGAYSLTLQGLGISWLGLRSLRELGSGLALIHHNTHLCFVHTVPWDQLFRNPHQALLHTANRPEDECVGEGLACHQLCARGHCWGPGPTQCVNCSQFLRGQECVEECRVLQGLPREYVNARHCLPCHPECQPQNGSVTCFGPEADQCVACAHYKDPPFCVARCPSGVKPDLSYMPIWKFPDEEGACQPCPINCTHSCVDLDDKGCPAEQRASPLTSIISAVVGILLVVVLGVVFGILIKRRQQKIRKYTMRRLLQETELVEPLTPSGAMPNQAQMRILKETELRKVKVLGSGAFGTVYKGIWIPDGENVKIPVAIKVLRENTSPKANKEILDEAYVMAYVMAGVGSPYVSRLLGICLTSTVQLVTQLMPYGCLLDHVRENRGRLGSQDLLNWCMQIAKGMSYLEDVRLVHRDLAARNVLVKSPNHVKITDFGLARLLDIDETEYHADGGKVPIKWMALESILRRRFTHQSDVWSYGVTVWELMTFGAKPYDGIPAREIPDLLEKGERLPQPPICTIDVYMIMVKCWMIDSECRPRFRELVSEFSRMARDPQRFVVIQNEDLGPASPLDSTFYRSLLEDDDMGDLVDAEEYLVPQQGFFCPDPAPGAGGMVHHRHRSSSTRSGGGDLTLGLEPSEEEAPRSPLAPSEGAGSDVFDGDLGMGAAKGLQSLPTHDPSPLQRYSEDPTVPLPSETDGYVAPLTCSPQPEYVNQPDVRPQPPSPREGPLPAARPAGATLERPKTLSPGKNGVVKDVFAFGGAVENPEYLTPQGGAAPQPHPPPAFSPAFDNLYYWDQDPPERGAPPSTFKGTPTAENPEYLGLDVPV
Sequence of BaF3_EGFRWT cells (P00533 whole entry, change not shown): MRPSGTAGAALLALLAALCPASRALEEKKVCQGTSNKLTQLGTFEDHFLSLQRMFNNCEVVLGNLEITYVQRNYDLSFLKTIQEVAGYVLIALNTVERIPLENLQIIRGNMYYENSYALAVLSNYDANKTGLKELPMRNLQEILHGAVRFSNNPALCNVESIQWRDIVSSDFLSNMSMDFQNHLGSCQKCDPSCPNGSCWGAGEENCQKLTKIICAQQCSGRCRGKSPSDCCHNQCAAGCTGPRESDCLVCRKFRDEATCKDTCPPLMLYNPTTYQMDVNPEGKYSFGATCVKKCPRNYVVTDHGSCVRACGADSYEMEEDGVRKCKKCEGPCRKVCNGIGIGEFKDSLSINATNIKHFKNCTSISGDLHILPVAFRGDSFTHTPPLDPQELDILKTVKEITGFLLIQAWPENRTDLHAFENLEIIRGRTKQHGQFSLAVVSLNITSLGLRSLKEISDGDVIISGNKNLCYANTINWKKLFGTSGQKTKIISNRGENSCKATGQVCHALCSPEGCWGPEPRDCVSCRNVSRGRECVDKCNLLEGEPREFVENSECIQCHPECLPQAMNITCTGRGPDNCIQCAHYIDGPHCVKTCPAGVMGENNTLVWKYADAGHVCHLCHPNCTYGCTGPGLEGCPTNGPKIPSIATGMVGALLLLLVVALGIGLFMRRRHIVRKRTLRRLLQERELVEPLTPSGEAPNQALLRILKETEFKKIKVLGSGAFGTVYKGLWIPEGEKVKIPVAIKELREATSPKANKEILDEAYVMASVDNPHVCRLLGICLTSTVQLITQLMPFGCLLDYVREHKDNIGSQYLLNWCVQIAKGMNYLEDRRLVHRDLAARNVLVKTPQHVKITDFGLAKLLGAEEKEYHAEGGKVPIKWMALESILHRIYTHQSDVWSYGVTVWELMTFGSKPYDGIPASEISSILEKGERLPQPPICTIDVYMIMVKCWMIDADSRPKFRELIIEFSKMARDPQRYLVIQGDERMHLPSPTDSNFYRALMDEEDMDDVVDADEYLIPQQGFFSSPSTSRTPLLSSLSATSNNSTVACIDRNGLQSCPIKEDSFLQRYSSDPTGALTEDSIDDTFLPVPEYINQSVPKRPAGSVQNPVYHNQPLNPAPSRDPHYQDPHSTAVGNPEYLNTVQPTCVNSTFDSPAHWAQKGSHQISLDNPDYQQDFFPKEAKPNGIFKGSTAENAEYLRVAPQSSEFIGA

With `COC1CCN(C/C=C/C(=O)N2CCC(c3ccn4ncnc(Nc5ccc(Oc6ccc7c(c6)ncn7C)c(C)c5)c34)CC2)C1` (racemic) [Example 106, (E)-4-(3-methoxypyrrolidin-1-yl)-1-(4-(4-((3-methyl-4-((1-methyl-1H-benzo[d]imidazol-5-yl)oxy)phenyl)amino)pyrrolo[2,1-f][1,2,4]triazin-5-yl)piperidin-1-yl)but-2-en-1-one], the GI50 on BaF3_EGFRWT cells (setting [1]) lay in the range of 1.5 to 5 µM.

As for `C=CC(=O)N1C[C@H]2C[C@@H]1C[C@H]2c1ccn2ncnc(Nc3ccc(Oc4ccn5ncnc5c4)c(C)c3)c12` (relative stereo) [Example 104, Rel-1-1(1S,4S,5R)-5-{4-[(3-methyl-4-{[1,2,4]triazolo[1,5-a]pyridin-7-yloxy}phenyl)amino]pyrrolo[2,1-f][1,2,4]triazin-5-yl}-2-azabicyclo[2.2.1]heptan-2-yl]prop-2-en-1-one], the GI50 at BaF3_EGFRWT cells (setting [1]) lay in the range of 1.5 to 5 µM; at BaF3_HER2WT cells (setting [2]), 0.5 to 1.5 µM; on BaF3_HER2YVMA cells (3-day treatment, CellTiterGlo, read-out: Cell growth inhibition activity, HER2 - YVMA), 1.5 to 5 µM.

`Cc1cc(Nc2ncnn3ccc(C4CCN(C(=O)/C=C/CN(C)C)C4)c23)ccc1Oc1ccn2ncnc2c1` (single isomer, unassigned) [Examples 99 and 100, first eluting isomer, (E)-1-(3-(4-((4-([1,2,4]triazolo[1,5-a]pyridin-7-yloxy)-3-methylphenyl)amino)pyrrolo[2,1-f][1,2,4]triazin-5-yl)pyrrolidin-1-yl)-4-(dimethylamino)but-2-en-1-one]: the GI50 at BaF3_EGFRWT cells (setting [3]) was 1.5 to 5 µM; on BaF3_HER2WT cells (setting [4]), under 0.2 µM; at BaF3_HER2YVMA cells (setting [5]), under 0.2 µM.

Turning to `Cc1cc(Nc2ncnn3ccc(C4CCN(C(=O)/C=C/CN(C)C)C4)c23)ccc1Oc1ccn2ncnc2c1` (single isomer, unassigned) [Examples 99 and 100, second eluting isomer, (E)-1-(3-(4-((4-([1,2,4]triazolo[1,5-a]pyridin-7-yloxy)-3-methylphenyl)amino)pyrrolo[2,1-f][1,2,4]triazin-5-yl)pyrrolidin-1-yl)-4-(dimethylamino)but-2-en-1-one], the figures for the GI50 at BaF3_EGFRWT cells (setting [3]), at BaF3_HER2WT cells (setting [4]) and at BaF3_HER2YVMA cells (setting [5]) were 1.5 to 5 µM, under 0.2 µM and 0.5 to 1.5 µM, respectively.

Consider `Cc1cc(Nc2ncnn3ccc(C4CCCN(C(=O)/C=C/CN(C)C)C4)c23)ccc1Oc1ccn2ncnc2c1` (single isomer, unassigned) [Examples 107 and 108, first eluting isomer, (E)-1-(3-(4-((4-([1,2,4]triazolo[1,5-a]pyridin-7-yloxy)-3-methylphenyl)amino)pyrrolo[2,1-f][1,2,4]triazin-5-yl)piperidin-1-yl)-4-(dimethylamino)but-2-en-1-one], for which the figures for the GI50 on BaF3_EGFRWT cells (setting [3]), at BaF3_HER2WT cells (setting [4]) and at BaF3_HER2YVMA cells (setting [5]) were 1.5 to 5 µM, under 0.2 µM and 0.5 to 1.5 µM, respectively.

`Cc1cc(Nc2ncnn3ccc(C4CCCN(C(=O)/C=C/CN(C)C)C4)c23)ccc1Oc1ccn2ncnc2c1` (single isomer, unassigned) [Examples 107 and 108, second eluting isomer, (E)-1-(3-(4-((4-([1,2,4]triazolo[1,5-a]pyridin-7-yloxy)-3-methylphenyl)amino)pyrrolo[2,1-f][1,2,4]triazin-5-yl)piperidin-1-yl)-4-(dimethylamino)but-2-en-1-one]: the GI50 on BaF3_EGFRWT cells (setting [3]) lay within 1.5 to 5 µM; on BaF3_HER2WT cells (setting [4]) it was 0.5 to 1.5 µM; at BaF3_HER2YVMA cells (setting [5]) it was 1.5 to 5 µM.

For `Cc1cc(Nc2ncnn3ccc(C4CCCN(C(=O)/C=C/CN(C)C)CC4)c23)ccc1Oc1ccn2ncnc2c1` (single isomer, unassigned) [Examples 109 and 110, first eluting isomer, (E)-1-(4-(4-((4-([1,2,4]triazolo[1,5-a]pyridin-7-yloxy)-3-methylphenyl)amino)pyrrolo[2,1-f][1,2,4]triazin-5-yl)azepan-1-yl)-4-(dimethylamino)but-2-en-1-one], the GI50 at BaF3_EGFRWT cells (setting [3]) is 1.5 to 5 µM; on BaF3_HER2WT cells (setting [4]) it was under 0.2 µM; at BaF3_HER2YVMA cells (setting [5]), under 0.2 µM.

Turning to `C=CC(=O)N1CCCC(c2ccn3ncnc(Nc4ccc(Oc5ccn6ncnc6c5)c(C)c4)c23)CC1` (single isomer, unassigned) [Examples 111 and 112, first eluting isomer, 1-(4-(4-((4-([1,2,4]triazolo[1,5-a]pyridin-7-yloxy)-3-methylphenyl)amino)pyrrolo-[2,1-f][1,2,4]triazin-5-yl)azepan-1-yl)prop-2-en-1-one], the figures for the GI50 at BaF3_EGFRWT cells (setting [3]), on BaF3_HER2WT cells (setting [4]) and at BaF3_HER2YVMA cells (setting [5]) were 1.5 to 5 µM, under 0.2 µM and under 0.2 µM, respectively.

On to `C=CC(=O)N1CCCC(c2ccn3ncnc(Nc4ccc(Oc5ccn6ncnc6c5)c(C)c4)c23)CC1` (single isomer, unassigned) [Examples 111 and 112, second eluting isomer, 1-(4-(4-((4-([1,2,4]triazolo[1,5-a]pyridin-7-yloxy)-3-methylphenyl)amino)pyrrolo-[2,1-f][1,2,4]triazin-5-yl)azepan-1-yl)prop-2-en-1-one], for which the GI50 at BaF3_EGFRWT cells (setting [3]) fell in the range of 1.5 to 5 µM.

Consider `Cc1cc(Nc2ncnn3ccc(C4CC5CCC(C4)N5C(=O)/C=C/CN(C)C)c23)ccc1Oc1ccn2ncnc2c1` (single isomer, unassigned) [Examples 122 and 123, first eluting isomer, (E)-1-(−3-(4-((4-([1,2,4]triazolo[1,5-a]pyridin-7-yloxy)-3-methylphenyl)amino)pyrrolo[2,1-f][1,2,4]triazin-5-yl)-8-azabicyclo[3.2.1]octan-8-yl)-4-(dimethylamino)but-2-en-1-one], for which the GI50 is 0.5 to 1.5 µM at BaF3_EGFRWT cells (setting [3]), under 0.2 µM at BaF3_HER2WT cells (setting [4]) and under 0.2 µM on BaF3_HER2YVMA cells (setting [5]).

As for `Cc1cc(Nc2ncnn3ccc(C4CC5CCC(C4)N5C(=O)/C=C/CN(C)C)c23)ccc1Oc1ccn2ncnc2c1` (single isomer, unassigned) [Examples 122 and 123, second eluting isomer, (E)-1-(3-(4-((4-([1,2,4]triazolo[1,5-a]pyridin-7-yloxy)-3-methylphenyl)amino)pyrrolo[2,1-f][1,2,4]triazin-5-yl)-8-azabicyclo[3.2.1]octan-8-yl)-4-(dimethylamino)but-2-en-1-one], the GI50 at BaF3_EGFRWT cells (setting [3]) was 1.5 to 5 µM; on BaF3_HER2WT cells (setting [4]), under 0.2 µM; on BaF3_HER2YVMA cells (setting [5]), 0.2 to 0.5 µM.

For `C=CC(=O)N1C2CCC1CC(c1ccn3ncnc(Nc4ccc(Oc5ccn6ncnc6c5)c(C)c4)c13)C2` (single isomer, unassigned) [Examples 124 and 125, first eluting isomer, 1-(3-(4-((4-([1,2,4]triazolo[1,5-a]pyridin-7-yloxy)-3-methylphenyl)amino)pyrrolo[2,1-f][1,2,4]triazin-5-yl)-8-azabicyclo[3.2.1]octan-8-yl)prop-2-en-1-one], the GI50 at BaF3_EGFRWT cells (setting [3]), at BaF3_HER2WT cells (setting [4]) and at BaF3_HER2YVMA cells (setting [5]) was under 0.2 µM each time.

As to `C=C(CN(C)C)C(=O)N1C2CCC1CC(c1ccn3ncnc(Nc4ccc(Oc5ccn6ncnc6c5)c(C)c4)c13)C2` (single isomer, unassigned) [Examples 126 and 127, first eluting isomer, 1-(3-(4-((4-([1,2,4]triazolo[1,5-a]pyridin-7-yloxy)-3-methylphenyl)amino)pyrrolo[2,1-f][1,2,4]triazin-5-yl)-8-azabicyclo[3.2.1]octan-8-yl)-2-((dimethylamino)methyl)prop-2-en-1-one], the results for the GI50 at BaF3_EGFRWT cells (setting [3]), on BaF3_HER2WT cells (setting [4]) and at BaF3_HER2YVMA cells (setting [5]) were 1.5 to 5 µM, under 0.2 µM and 0.2 to 0.5 µM, respectively.

Take `C=C(CN(C)C)C(=O)N1C2CCC1CC(c1ccn3ncnc(Nc4ccc(Oc5ccn6ncnc6c5)c(C)c4)c13)C2` (single isomer, unassigned) [Examples 126 and 127, second eluting isomer, 1-(3-(4-((4-([1,2,4]triazolo[1,5-a]pyridin-7-yloxy)-3-methylphenyl)amino)pyrrolo[2,1-f][1,2,4]triazin-5-yl)-8-azabicyclo[3.2.1]octan-8-yl)-2-((dimethylamino)methyl)prop-2-en-1-one]: the results for the GI50 on BaF3_EGFRWT cells (setting [3]), at BaF3_HER2WT cells (setting [4]) and at BaF3_HER2YVMA cells (setting [5]) were 1.5 to 5 µM, 0.2 to 0.5 µM and 0.5 to 1.5 µM, respectively.

For `C=C(CN(C)C)C(=O)N1CC2CCC1CC2c1ccn2ncnc(Nc3ccc(Oc4ccn5ncnc5c4)c(C)c3)c12` (single isomer, unassigned) [Examples 135 and 136, first eluting isomer, 1-(5-(4-((4-([1,2,4]triazolo[1,5-a]pyridin-7-yloxy)-3-methylphenyl)amino)pyrrolo[2,1-f][1,2,4]triazin-5-yl)-2-azabicyclo[2.2.2]octan-2-yl)-2-((dimethylamino)methyl)prop-2-en-1-one], the GI50 was 1.5 to 5 µM at BaF3_EGFRWT cells (setting [3]), under 0.2 µM on BaF3_HER2WT cells (setting [4]) and under 0.2 µM on BaF3_HER2YVMA cells (setting [5]).

Turning to `Cc1cc(Nc2ncnn3ccc(C4CCN(C(=O)/C=C/CN(C)C)CC4)c23)ccc1Oc1ccn2ncnc2c1` [Example 21, (E)-1-(4-(4-((4-([1,2,4]triazolo[1,5-a]pyridin-7-yloxy)-3-methylphenyl)amino)pyrrolo[2,1-f][1,2,4]triazin-5-yl)piperidin-1-yl)-4-(dimethylamino)but-2-en-1-one], the GI50 on BaF3_EGFRWT cells (setting [1]) was in the range of 1.5 to 5 µM.

As to `COC1CN(C/C=C/C(=O)N2CC(c3ccn4ncnc(Nc5ccc(Oc6ccn7ncnc7c6)c(C)c5)c34)C2)C1` [Example 39, (E)-1-(3-(4-((4-([1,2,4]triazolo[1,5-a]pyridin-7-yloxy)-3-methylphenyl)amino)pyrrolo[2,1-f][1,2,4]triazin-5-yl)azetidin-1-yl)-4-(3-methoxyazetidin-1-yl)but-2-en-1-one], the figures for the GI50 on BaF3_EGFRWT cells (setting [1]) and at BaF3_HER2WT cells (setting [2]) were 1.5 to 5 µM and under 0.2 µM, respectively.

For the compound `Cc1cc(Nc2ncnn3ccc(C(=O)NCCCN(C)C)c23)ccc1Oc1ccn2ncnc2c1` [Example 179, 4-((4-([1,2,4]triazolo[1,5-a]pyridin-7-yloxy)-3-methylphenyl)amino)-N-(3-(dimethylamino)-propyl)pyrrolo[2,1-f][1,2,4]triazine-5-carboxamide hydrochloride], the GI50 at BaF3_EGFRWT cells (setting [1]) was over 5 µM; at BaF3_HER2WT cells (setting [2]), 0.2 to 0.5 µM.
